Experimental findings from patent US20250179066A1, “ZWITTERIONIC ANTIBACTERIAL COMPOUNDS” (Hoffmann-La Roche Inc., priority 2022, published 2025) are described below.

SMILES strings stand for the structures. Counter-ions that a name gives are not always drawn.

The first experiment deals with Acinetobacter baumannii ATCC17961. In words: Antimicrobial susceptibility testing: 90% growth inhibitory concentration (IC90) determination. It is filed as cell-based. The conditions noted are these: 90% growth inhibitory concentration against Acinetobacter baumannii ATCC17961, Iso-Sensitest broth, OD 600 nm over 16 h; read-out: ATCC 17961 IC90. The procedure, abridged: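 Twofold serial dilutions (e.g. 10 to 0.0195 μM final) in Iso-Sensitest broth inoculated at ~5×10^5 CFU/mL, incubated at 35±2° C. OD600 read every minute for 16 h; IC90 is the concentration inhibiting 90% of growth during logarithmic phase.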
A word on the IC90: it is the concentration needed for an effect of 90%. Turning to `Cn1c(-c2cn(-c3ccc(N)cc3F)nc2C(F)(F)F)cnc1C(=O)Nc1ccc(C(=O)N2CCN(C(=O)CCC[N+](CCCN)(CCCN)CCCC(=O)O)CC2)c(Cl)c1` [Example 182, [4-[4-[4-[[5-[1-(4-amino-2-fluoro-phenyl)-3-(trifluoromethyl)pyrazol-4-yl]-1-methyl-imidazole-2-carbonyl]amino]-2-chloro-benzoyl]piperazin-1-yl]-4-oxo-butyl]-bis(3-aminopropyl)-(3-carboxypropyl)ammonium; 2,2,2-trifluoroacetate], the IC90 amounted to 0.201 µM.

Still in this experiment, the particulars now being: Acinetobacter baumannii, ATCC17961, 16 h, 90% growth inhibitory concentration against Acinetobacter baumannii ATCC17961, Iso-Sensitest broth, OD 600 nm over 16 h; read-out: ATCC 17961 IC90.
As to `Cn1c(-c2cn(-c3ccc4c(ccn4CCN)n3)nc2C(F)(F)F)cnc1C(=O)Nc1ccc(C(=O)N2CCN(C(=O)[C@H]3CC[N@+](CC(=O)O)(CC4CNC4)CC3)CC2)c(Cl)c1` [Example 190, cis-2-[4-[4-[4-[[5-[1-[1-(2-aminoethyl)pyrrolo[3,2-b]pyridin-5-yl]-3-(trifluoromethyl)pyrazol-4-yl]-1-methyl-imidazole-2-carbonyl]amino]-2-chloro-benzoyl]piperazine-1-carbonyl]-1-(azetidin-3-ylmethyl)piperidin-1-ium-1-yl]acetic acid. 1:1 hydrogen chloride. 1:1 chloride], the IC90 is 0.199 µM.

With `Cn1c(-c2cn(-c3ccc4[nH]ccc4n3)nc2C(F)(F)F)cnc1C(=O)Nc1ccc(C(=O)N2CCN(C(=O)C3CC[N+](CC(=O)O)(CC4CNC4)CC3)CC2)c(Cl)c1` (stereo not drawn) [Example 18, 2-[1-(azetidin-3-ylmethyl)-4-[4-[2-chloro-4-[[1-methyl-5-[1-(1H-pyrrolo[3,2-b]pyridin-5-yl)-3-(trifluoromethyl)pyrazol-4-yl]imidazole-2-carbonyl]amino]benzoyl]piperazine-1-carbonyl]piperidin-1-ium-1-yl]acetic acid. 1:1 formate], the IC90 was determined as 0.26 µM. Turning to `Cn1c(-c2cn(-c3ccc(O)cn3)nc2C(F)(F)F)cnc1C(=O)Nc1ccc(C(=O)N2CCN(C(=O)C3CC[N+](CC(=O)O)(CC4CNC4)CC3)CC2)c(Cl)c1` (stereo not drawn) [Example 54, 2-[1-(azetidin-3-ylmethyl)-4-[4-[2-chloro-4-[[5-[1-(5-hydroxy-2-pyridyl)-3-(trifluoromethyl)pyrazol-4-yl]-1-methyl-imidazole-2-carbonyl]amino]benzoyl]piperazine-1-carbonyl]piperidin-1-ium-1-yl]acetic acid. 1:1 2,2,2-trifluoroacetate], the IC90 came to 0.55 µM. On the same count and under the same terms, with `Cn1c(-c2cn(-c3ccc(N(CCN)CCN)cn3)nc2C(F)(F)F)cnc1C(=O)Nc1ccc(C(=O)N2CCN(C(=O)[C@H]3CC[N@+](CC(=O)O)(CC4CNC4)CC3)CC2)c(Cl)c1` [Example 196, cis-2-[1-(azetidin-3-ylmethyl)-4-[4-[4-[[5-[1-[5-[bis(2-aminoethyl)amino]-2-pyridyl]-3-(trifluoromethyl)pyrazol-4-yl]-1-methyl-imidazole-2-carbonyl]amino]-2-chloro-benzoyl]piperazine-1-carbonyl]piperidin-1-ium-1-yl]acetic acid;formic acid;formate] the figure was 0.185 µM. For `Cn1c(-c2cn(-c3ccc(N)cc3F)nc2C(F)(F)F)cnc1C(=O)Nc1ccc(C(=O)N2CCC(C(=O)N3CC[N+](CCCN)(CC(=O)O)CC3)CC2)c(Cl)c1` [Example 135, 2-[4-[1-[4-[[5-[1-(4-amino-2-fluoro-phenyl)-3-(trifluoromethyl)pyrazol-4-yl]-1-methyl-imidazole-2-carbonyl]amino]-2-chloro-benzoyl]isonipecotoyl]-1-(3-aminopropyl)piperazin-1-ium-1-yl]acetic acid. 1:1 2,2,2-trifluoroacetate], the IC90 amounted to 0.393 µM. With `Cn1c(-c2cn(-c3ccc4c(ccn4CCO)n3)nc2C(F)(F)F)cnc1C(=O)Nc1ccc(C(=O)N2CCN(C(=O)[C@H]3CC[N@+](CC(=O)O)(CC4CNC4)CC3)CC2)c(Cl)c1` [Example 198, cis-2-[1-(azetidin-3-ylmethyl)-4-[4-[2-chloro-4-[[5-[1-[1-(2-hydroxyethyl)pyrrolo[3,2-b]pyridin-5-yl]-3-(trifluoromethyl)pyrazol-4-yl]-1-methyl-imidazole-2-carbonyl]amino]benzoyl]piperazine-1-carbonyl]piperidin-1-ium-1-yl]acetic acid. 1:1 2,2,2-trifluoroacetate], the concentration for an effect of 90% (IC90) was determined as 0.37 µM. Still for that read-out and setting: with `Cn1c(-c2cn(-c3ccc4[nH]c([C@@H](O)CO)cc4n3)nc2C(F)(F)F)cnc1C(=O)Nc1ccc(C(=O)N2CCN(C(=O)[C@H]3CC[N@+](CC(=O)O)(CC4CNC4)CC3)CC2)c(Cl)c1` [Example 106, cis-2-[1-(azetidin-3-ylmethyl)-4-[4-[2-chloro-4-[[5-[1-[2-[(1R)-1,2-dihydroxyethyl]-1H-pyrrolo[3,2-b]pyridin-5-yl]-3-(trifluoromethyl)pyrazol-4-yl]-1-methyl-imidazole-2-carbonyl]amino]benzoyl]piperazine-1-carbonyl]piperidin-1-ium-1-yl]acetic acid;chloride] the figure was 0.611 µM; with `Cn1c(-c2cn(-c3ccc4[nH]c(CO)cc4n3)nc2C(F)(F)F)cnc1C(=O)Nc1ccc(C(=O)N2CCN(C(=O)[C@H]3CC[N@+](CC(=O)O)(CC4CNC4)CC3)CC2)c(Cl)c1` [Example 33, cis-2-[1-(azetidin-3-ylmethyl)-4-[4-[2-chloro-4-[[1-methyl-5-[1-(2-methylol-1H-pyrrolo[3,2-b]pyridin-5-yl)-3-(trifluoromethyl)pyrazol-4-yl]imidazole-2-carbonyl]amino]benzoyl]piperazine-1-carbonyl]piperidin-1-ium-1-yl]acetic acid. 1:1 2,2,2-trifluoroacetate], 0.38 µM; with `Cn1c(-c2cn(-c3ccc4[nH]c(CN)cc4n3)nc2C(F)(F)F)cnc1C(=O)Nc1ccc(C(=O)N2CCN(C(=O)[C@H]3CC[N@+](CC(=O)O)(CC4CNC4)CC3)CC2)c(Cl)c1` [Example 184, cis-2-[4-[4-[4-[[5-[1-[2-(aminomethyl)-1H-pyrrolo[3,2-b]pyridin-5-yl]-3-(trifluoromethyl)pyrazol-4-yl]-1-methyl-imidazole-2-carbonyl]amino]-2-chloro-benzoyl]piperazine-1-carbonyl]-1-(azetidin-3-ylmethyl)piperidin-1-ium-1-yl]acetic acid;formate], 0.0642 µM. `Cn1c(-c2cn(-c3ccc(NCCO)cc3F)nc2C(F)(F)F)cnc1C(=O)Nc1ccc(C(=O)N2CCN(C(=O)[C@H]3CC[N@+](CC(=O)O)(CC4CNC4)CC3)CC2)c(Cl)c1` [Example 178, cis-2-[1-(azetidin-3-ylmethyl)-4-[4-[2-chloro-4-[[5-[1-[2-fluoro-4-(2-hydroxyethylamino)phenyl]-3-(trifluoromethyl)pyrazol-4-yl]-1-methyl-imidazole-2-carbonyl]amino]benzoyl]piperazine-1-carbonyl]piperidin-1-ium-1-yl]acetic acid. 1:1 formate]: the IC90 was determined as 0.135 µM. The same measure, in the same setting: with `CNc1ccc(-n2cc(-c3cnc(C(=O)Nc4ccc(C(=O)N5CCN(C(=O)[C@H]6CC[N@+](CC(=O)O)(CC7CNC7)CC6)CC5)c(Cl)c4)n3C)c(C(F)(F)F)n2)nc1` [Example 29, cis-2-[1-(azetidin-3-ylmethyl)-4-[4-[2-chloro-4-[[1-methyl-5-[1-[5-(methylamino)-2-pyridyl]-3-(trifluoromethyl)pyrazol-4-yl]imidazole-2-carbonyl]amino]benzoyl]piperazine-1-carbonyl]piperidin-1-ium-1-yl]acetic acid. 1:1 2,2,2-trifluoroacetate] the figure was 0.36 µM.
